Laboratory results as given in ChEMBL document CHEMBL1201862, “PubChem BioAssay data set” (2004).
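Cultured in 96-well plates, cells were exposed to test compound for 48 hours across five concentrations. GI50 = concentration required for 50% inhibition of growth.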 The source made the active and inactive calls. No stated cut-off is given here; in the data, active = GI50 up to about 1.1 µM and inactive = higher.

Experiments:
Experiment in all cases: NCI-60 cell line screen, 48 h
786-0 = tested on: 786-0
MDA-MB-231 = tested on: MDA-MB-231
DU-145 = tested on: DU-145
M14 = tested on: M14
T47D = tested on: T47D
K562 = tested on: K562
U-251 = tested on: U-251
NCI-H460 = tested on: NCI-H460
MOLT-4 = tested on: MOLT-4
SN12C = tested on: SN12C
SK-OV-3 = tested on: SK-OV-3
HCT-116 = tested on: HCT-116
SNB-19 = tested on: SNB-19
HCT-15 = tested on: HCT-15
BT-549 = tested on: BT-549
RXF 393 = tested on: RXF 393
HT-29 = tested on: HT-29
NCI-H226 = tested on: NCI-H226
SK-MEL-28 = tested on: SK-MEL-28
Hs-578T = tested on: Hs-578T

Row | Compound | GI50 (786-0) | GI50 (MDA-MB-231) | GI50 (DU-145) | GI50 (M14) | GI50 (T47D) | GI50 (K562) | GI50 (U-251) | GI50 (NCI-H460) | GI50 (MOLT-4) | GI50 (SN12C) | GI50 (SK-OV-3) | GI50 (HCT-116) | GI50 (SNB-19) | GI50 (HCT-15) [µM] | GI50 (BT-549) | GI50 (RXF 393) | GI50 (HT-29) | GI50 (NCI-H226) | GI50 (SK-MEL-28) | GI50 (Hs-578T)
1 | CNC1C(OC2C(OC3C(O)C(O)C(O)C(O)C3O)OC(C)C2(O)CO)OC(CO)C(O)C1O.N=C(N)N.NC(=O)O (stereo not given) | > 100 µM (inactive) | > 100 µM (inactive) | > 100 µM (inactive) | > 100 µM (inactive) | > 100 µM (inactive) | > 100 µM (inactive) | > 100 µM (inactive) | > 100 µM (inactive) | > 100 µM (inactive) | > 100 µM (inactive) | > 100 µM (inactive) | > 100 µM (inactive) | > 100 µM (inactive) | > 100 | > 100 µM (inactive) | > 100 µM (inactive) | > 100 µM (inactive) | > 100 µM (inactive) | > 100 µM (inactive) | > 100 µM (inactive)
2 | COc1ccc(/C=C2\Sc3nnc(C)n3N=C2c2cc(F)c(Cl)cc2Cl)cc1OC | 2.97 µM (inactive) | 26.4 µM (inactive) | 14.7 µM (inactive) | 13.6 µM (inactive) | 24.8 µM (inactive) | 3.09 µM (inactive) | 15.8 µM (inactive) | 20.8 µM (inactive) | 3.35 µM (inactive) | 17.5 µM (inactive) | 30.1 µM (inactive) | 5.98 µM (inactive) | 1.19 µM (inactive) | 6.93 | 17.8 µM (inactive) | 15.9 µM (inactive) | 13.2 µM (inactive) | 23.2 µM (inactive) | 23.3 µM (inactive) | 41.9 µM (inactive)
3 | Oc1ccc(Cl)cc1-c1nc(S)nc(-c2ccccc2)c1Cl | 34.7 µM (inactive) | > 56.4 µM (inactive) | > 70.6 µM (inactive) | > 100 µM (inactive) | > 100 µM (inactive) | > 100 µM (inactive) | 43.2 µM (inactive) | > 100 µM (inactive) | > 100 µM (inactive) | > 100 µM (inactive) | > 96.4 µM (inactive) | > 96.4 µM (inactive) | 69.2 µM (inactive) | > 100 | 44.7 µM (inactive) | 45 µM (inactive) | > 31.6 µM (inactive) | > 100 µM (inactive) | > 100 µM (inactive) | 22.9 µM (inactive)
4 | C[C@]12CC[C@H]3[C@@H](CCC4=CC(=O)CC[C@@H]43)[C@@H]1CC[C@]2(O)C(N)=O | > 100 µM (inactive) | > 100 µM (inactive) | > 100 µM (inactive) | > 100 µM (inactive) | > 100 µM (inactive) | > 100 µM (inactive) | > 100 µM (inactive) | > 100 µM (inactive) | > 100 µM (inactive) | > 100 µM (inactive) | > 100 µM (inactive) | > 100 µM (inactive) | > 100 µM (inactive) | > 100 | > 100 µM (inactive) | > 100 µM (inactive) | > 100 µM (inactive) | > 100 µM (inactive) | > 100 µM (inactive) | > 100 µM (inactive)
5 | CC1=CC(C)(C)NN1C1=NS(=O)(=O)c2ccccc2N1C | > 100 µM (inactive) | > 100 µM (inactive) | > 100 µM (inactive) | > 100 µM (inactive) | > 100 µM (inactive) | > 100 µM (inactive) | > 100 µM (inactive) | > 100 µM (inactive) | 47.9 µM (inactive) | > 100 µM (inactive) | > 100 µM (inactive) | > 100 µM (inactive) | > 100 µM (inactive) | 89.9 | > 100 µM (inactive) | > 100 µM (inactive) | > 100 µM (inactive) | > 100 µM (inactive) | > 100 µM (inactive) | > 100 µM (inactive)
6 | CCOC1c2cc(OC)c(OC)cc2-c2ccc3ccccc3c2N1C (stereo not given) | 16.8 µM (inactive) | 13.5 µM (inactive) | 15 µM (inactive) | 19.3 µM (inactive) | 4.84 µM (inactive) | 7.16 µM (inactive) | 6.41 µM (inactive) | 12.2 µM (inactive) | 4.43 µM (inactive) | 7.76 µM (inactive) | 22 µM (inactive) | 8.59 µM (inactive) | 9.86 µM (inactive) | 60.1 | 12.6 µM (inactive) | 21.7 µM (inactive) | 10.9 µM (inactive) | 19.2 µM (inactive) | 13.4 µM (inactive) | 6.4 µM (inactive)
7 | c1ccc(-c2cc(-c3cc(-c4ccccn4)[nH]n3)n[nH]2)nc1 | 41.9 µM (inactive) | > 100 µM (inactive) | 95.7 µM (inactive) | 30.8 µM (inactive) | 80.4 µM (inactive) | 8.45 µM (inactive) | > 100 µM (inactive) | 35.6 µM (inactive) | 33.3 µM (inactive) | 27.6 µM (inactive) | > 100 µM (inactive) | 27.7 µM (inactive) | > 100 µM (inactive) | 55.7 | > 100 µM (inactive) | > 100 µM (inactive) | 38.8 µM (inactive) | > 100 µM (inactive) | > 100 µM (inactive) | > 100 µM (inactive)
8 | O=[N+]([O-])c1ccc2c(c1)/C(=N/N=C1c3ccccc3Cc3ccccc31)c1cc([N+](=O)[O-])cc([N+](=O)[O-])c1-2 | 1.72 µM (inactive) | 2.62 µM (inactive) | 5.82 µM (inactive) | 2.49 µM (inactive) | 1.78 µM (inactive) | 3.7 µM (inactive) | 3.24 µM (inactive) | 3.14 µM (inactive) | 1.91 µM (inactive) | 1.67 µM (inactive) | 14.2 µM (inactive) | 1.57 µM (inactive) | 7.33 µM (inactive) | 2.14 | 1.52 µM (inactive) | 2.61 µM (inactive) | 1.97 µM (inactive) | 13.4 µM (inactive) | 3.45 µM (inactive) | 2.86 µM (inactive)
9 | COC(=O)c1ccccc1C#CC#Cc1ccccc1C(=O)OC | > 10 µM (inactive) | > 10 µM (inactive) | > 10 µM (inactive) | > 10 µM (inactive) | > 10 µM (inactive) | 8.57 µM (inactive) | > 10 µM (inactive) | > 10 µM (inactive) | > 10 µM (inactive) | > 10 µM (inactive) | > 10 µM (inactive) | > 10 µM (inactive) | > 10 µM (inactive) | 7.35 | > 10 µM (inactive) | > 10 µM (inactive) | 6.4 µM (inactive) | 5.48 µM (inactive) | > 10 µM (inactive) | > 10 µM (inactive)
10 | COC(=O)c1ccc(NCC2=CC(=O)C=CC2=O)cc1O | 15.7 µM (inactive) | 16.8 µM (inactive) | 15.2 µM (inactive) | 20.9 µM (inactive) | 8.43 µM (inactive) | 3.33 µM (inactive) | 36.5 µM (inactive) | 21 µM (inactive) | 8.87 µM (inactive) | 21.5 µM (inactive) | 20.4 µM (inactive) | 17.2 µM (inactive) | 19.7 µM (inactive) | 16.5 | 11.4 µM (inactive) | 19.9 µM (inactive) | 19.6 µM (inactive) | 19.5 µM (inactive) | 46 µM (inactive) | 48.6 µM (inactive)
